Assay results as given in US7270975B2, “Methods for regulating bud-hypha transitions and cAMP levels in Candida albicans” (priority 2001, dated 2007).
Read-outs that look alike come from different tables or passages of the source.

Assays:
[1] = test system: C. albicans cap1/cap1 mutant strain, CAC1-1A; assay: Filamentous growth in SLAD agar with exogenous cAMP or dbcAMP; format: cell-based, Candida albicans; details: SLAD media, 10 mM, 37° C.; for colony morphology / filamentous growth of the cap1/cap1 mutant: 5 days
Description: (§1) To determine the effect of exogenous cAMP on bud-hypha transitions and filamenious growth of cap1/cap1 mutants, stationary phase yeasts were induced to form germ tubes and hyphae in liquid M199+serum (10^6 cells/ml) or in SLAD agar plates containing 10 mM cAMP or dbcAMP (Sigma). M199+serum containing cAMP or dbcAMP were incubated at 37° C. for 20 h and the frequency of germ tube formation was measured at various time points. SLAD plates containing cAMP or dbcAMP were incubated at 37° C. for 5 days, and filamentous growth was monitored daily.

[2] = test system: C. albicans wild type CAP1/CAP1 strain, UnoPP-1; format: cell-based, Candida albicans; details: SLAD media, 10 mM, 37° C.
[3] = test system: C. albicans pde2/pde2 mutant (BPS4); details: for relative growth (CFU vs YNB alone) of the pde2/pde2 mutant: 6 h; for doubling time of pde2/pde2 mutants: 30° C.; for swollen pde2/pde2 mutant cells: YNB, 6 hours
Description: (§2) C. albicans strains were grown in YNB at 30° C. to middle-logarithmic phase, and then an equal number of cells were subcultured into YNB or YNB containing 4 mM and 40 mM cAMP and grown for 6 to 9 hours. Every hour during incubation, optical density and cell number/ml of cultures were measured by a photoelectric colorimeter (Klett-Summerson, Klett MFG. Co., Inc, NY, N.Y.) and hemacytometer, respectively. The percent of dead cells was determined by staining with 0.1% methylene blue (Sigma, St. Louis, Mo.). Also, cell morphologies were observed by microscopy. After a 6-hour incubation of each strain with YNB containing the indicated amounts of exogenous cAMP, culture samples were serially diluted, spread on YPD plates, and incubated for 2 days to determine the number of colony forming units (CFU). The percent relative growth was calculated by using the following formula: [(CFU of a strain incubated for 6 h in YNB having an indicated concentration of cAMP)/(CFU of the strain incubated for 6 h in YNB only)]×100%.

[4] = test system: C. albicans strains with a wild type PDE2 gene (UnoPP-1, BPS1, BPS9); details: YNB, 4 mM and 40 mM cAMP
Description: as §2

[5] = test system: PDE2 mRNA in C. albicans cap1/cap1 mutant; details: cAMP 10 mM, germ tube induction conditions, data not shown
[6] = test system: C. albicans cap1/cap1 mutant strain, CAC1-1A; assay: Bud-hypha transitions in liquid M199+serum with exogenous cAMP or dbcAMP; format: cell-based, Candida albicans; details: 10 mM
Description: as §1

[7] = test system: C. albicans cap1/cap1 pde2/pde2 mutant (BPS18); assay: Filamentation in SLAD agar with or without dbcAMP; format: cell-based, Candida albicans; details: SLAD agar media, 10 mM dbcAMP
Description: Filamentous growth of each strain was induced at 37° C. for 6 days in solid Spider media (a11-15) and 2% agar media containing 4% bovine calf serum (a16-20).
For growth analysis in agar-containing media, stationary-phase yeasts were mixed (200 cells/25 ml of medium) with liquefied agar Spider medium (Liu et al., 266 SCIENCE 1723-1726 (1994)), SLAD (synthetic low ammonium dextrose)(Csank et al., 66 INFECT. IMMUN. 2713-2721 (1998)), and 2% agar containing 4% bovine calf serum (Lo et al., 90 CELL 939-949 (1997).

Nc1ncnc2c1ncn2[C@@H]1O[C@@H]2COP(=O)(O)O[C@H]2[C@H]1O [cAMP, cyclic AMP]
timing of onset of filamentous growth of the cap1/cap1 mutant [1]: two | colony morphology / filamentous growth of the cap1/cap1 mutant [1]: dramatically altered the colony morphology | filamentous growth of the wild type strain [2]: slightly enhanced | relative growth (CFU vs YNB alone) of the pde2/pde2 mutant ([3]; YNB containing 4 mM cAMP): about 70% | relative growth (CFU vs YNB alone) of the pde2/pde2 mutant ([3]; YNB containing 40 mM cAMP): ~40% | doubling time of pde2/pde2 mutants ([3]; YNB with 4 mM cAMP): 3.7 h | doubling time of pde2/pde2 mutants ([3]; YNB with 40 mM cAMP): 4.8 h | swollen pde2/pde2 mutant cells ([3]; 4 mM cAMP): ~50 % of cells | swollen pde2/pde2 mutant cells ([3]; 40 mM cAMP): greater than 90 % of cells | relative growth rate of strains with a wild type PDE2 gene [4]: not affected | PDE2 mRNA expression in the cap1/cap1 mutant [5]: the same with or without exogenous cAMP

CCCC(=O)Nc1ncnc2c1ncn2[C@@H]1O[C@@H]2COP(=O)(O)O[C@H]2[C@H]1OC(=O)CCC [dbcAMP, dibutyryl cAMP]
timing of onset of filamentous growth of the cap1/cap1 mutant [1]: two | colony morphology / filamentous growth of the cap1/cap1 mutant [1]: dramatically altered the colony morphology | filamentous growth of the wild type strain [2]: slightly enhanced | hypha formation of the cap1/cap1 mutant in liquid media ([6]; 37° C., 10^6 cells/ml): enhanced | pseudohyphae detected in the presence vs absence of dbcAMP ([6]; at 3 h): twice as many pseudohyphae | filamentation of the cap1/cap1 pde2/pde2 mutant [7]: increase filamentation of the cap1/cap1 pde2/pde2 mutant to near wild type levels
